According to patent publication US20120149780A1, “Method of Use of Vitamin K as Energy Enhancer in Diverse Disease States” (priority 2009, published 2012):

What was measured:
[1] = literature supplemental trials, oral supplementation; cited from earlier work
[2] = Post-chemo restlessness/akathisia in ovarian cancer patient (case report); type: in vivo, human; conditions: Example 05: person, ovarian cancer under chemotherapy
From the text: (§1) Person, was diagnosed to have bilateral ovarian cancer in 2005, with ascites and abdominal lymph node metastases. They have undergone surgery and several courses of chemotherapy. […] They are currently under chemotherapy cycles. They tolerated chemotherapy reasonably well but complained of marked fatigue and low energy levels. […] They were given a larger dose of vitamin K2-7 per day. […] They are continued on the dose of vitamin K2-7 for two months.

[3] = tested on: CEA; test: CEA levels in ovarian cancer patient (case report); type: in vivo, human; conditions: Example 05: person, under chemotherapy and vitamin K2-7
From the text: as §1

[4] = Side effects / adverse effects noted during treatment (case reports); type: in vivo, human
Protocol: (§2) Their complaints were fatigue, low energy level, muscle cramps and tingling and numbness of lower limbs. […] These returned with drawal and were relieved with re-therapy. […] They were started 350 μg per day of vitamin K2-7 over the two months period.
(§3) Person, healthy otherwise, was having blood pressure on higher side i.e. 130/90 mmHg. They were advised to start taking vitamin K2-7, in a dose of 650 μg, one capsule per day.

[5] = Muscle cramps and neuropathic symptoms of lower limbs (case report); type: in vivo, human; conditions: Example 06: person
Protocol: as §2

[6] = Blood pressure in individual subjects taking vitamin K2-7 (case reports); type: in vivo, human
Protocol: Person, with hypercholesterolemia (Lipid Profile; 200 mg—Total cholesterol) for which they are taking Atorvastatin 5 mg one per day and 75 mg of Aspirin one per/day since last five years. Underwent angioplasty. They were also having blood pressure which ranges from 136-134/90-88 mmHg. They were taking Telmisartan 40 mg/day from last 4 years for hypertension. Then about 6 months ago they started taking vitamin K2-7 in daily dose of 200 μg. Currently they have stopped taking anti-hypertensive medication from last 1 month. Over a period of 1 and ½ months it is observed that their blood pressure has dropped down to 118-114/78-84 mmHg. Now they are off any anti-hypertensive medicine and continues with vitamin K2-7 only.
(§4) Person was having hypertension (160/114 mmHg) but was not on any medication. They complained of fatigue and low energy level. They were put on 3 capsules per day of 100 μg of vitamin K2-7 for 1 month and then on 2 capsule per day of 350 μg of vitamin K2-7 for the next 2 months under close observation by medical doctor. […] They continued the medicine for next couple of month with same dose i.e. 2 capsules per day of 350 μg of vitamin K2-7. […] Then they were taken off from the treatment for 15 days. Blood pressure shot up to 146/108 mmHg, They were again put on vitamin K2-7, 350 μg, 2 capsules per day and their blood pressure came down to 136/100 mmHg.
as §3

[7] = Fatigue, energy level and exertion endurance in individual subjects (case reports); type: in vivo, human
Protocol: Person, suffering from general fatigue. They used to go to Gold gym 5-6 times per month. On the treadmill they used to walk at 5 km/hr speed at the start of the exercise and then gradually increase it to 6 km/hr in the next 15 minutes. When they started taking vitamin K2-7 350 μg per day, within 2 weeks of taking vitamin K2-7, they could start at 6 km/hr and go on up to 6.4 km/hr on the treadmill without feeling the strain they felt earlier. […] Their treadmill experience, was now smooth and ‘effortless’.
as §1, §2, §4
Person, was heaving history of Spondylosis, Diabetes mellitus and Hypertension. Five years ago they were operated for cataract (right eye). They are on regular medicine i.e. Atenol50™, one per day, after breakfast, Insulin2™ one per day after lunch, and Diaonil5™, two times a day. They were complaining of fatigue and lack of energy so much so that they found ascending 20 steps at a time difficult with related exhaustion and breathlessness. They were advised to take vitamin K2-7, 350 μg, one cap per day.

[8] = 500 μg/day, 36-month, older men; cited from earlier work

Question: For CN(CC(=O)O)C(=N)N.O [Creatine monohydrate], which “effect of supplementation on VO2max / aerobic capacity / exercise performance” value [1] is on record?
Answer: The value was “did not increase performance”.

Question: Which “effect of supplementation on VO2max / aerobic capacity / exercise performance” value [1] does the source give for OC[C@H]1O[C@@H](n2cnc3c(O)ncnc32)[C@H](O)[C@@H]1O [Inosine] here?
Answer: The value was “no effect on aerobic performance”.

Question: Which “effect of supplementation on VO2max / aerobic capacity / exercise performance” value [1] does the source give for C[N+](C)(C)C[C@H](O)CC(=O)[O-] [L-carnitine] here?
Answer: The value was “unlikely to be associated with the enhanced exercise performance”.

Question: With NC(=O)C1=CN([C@@H]2O[C@H](COP(=O)(O)OP(=O)(O)OC[C@H]3O[C@@H](n4cnc5c(N)ncnc54)[C@H](O)[C@@H]3O)[C@@H](O)[C@H]2O)C=CC1 [NADH, Nicotinamide Adenine Dinucleotide Hydride] as the compound, how does the “effect of supplementation on VO2max / aerobic capacity / exercise performance” value [1] read?
Answer: Its value is “no effects on maximal oxygen uptake VO2max, maximal anaerobic running time or mental performance”.

Question: Which “effect of supplementation on VO2max / aerobic capacity / exercise performance” value [1] does the source give for CN(CC(=O)O)C(=N)N [creatine] here?
Answer: Its value is “improves exercise performance”.

Question: For CC(O)C(=O)O (stereo not drawn) [lactate], which “effect of supplementation on VO2max / aerobic capacity / exercise performance” value [1] is on record?
Answer: Its value is “unaffected”.

Question: With CC(CN1c2ccccc2Sc2ccccc21)N(C)C (stereo not drawn) [phenergan, reference compound] as the compound, how does the post-chemo restlessness/akathisia [2] read?
Answer: Its post-chemo restlessness/akathisia is “relieved”.

Question: Which “effect of supplementation on VO2max / aerobic capacity / exercise performance” value [1] does the source give for O=C1O[C@H]([C@@H](O)CO)C(O)=C1O [vitamin C] here?
Answer: Its value is “neither vitamin E nor C, either alone or in combination, enhanced exercise performance”.

Question: With CC(C)=CCC/C(C)=C/CC/C(C)=C/CC/C(C)=C/CC/C(C)=C/CC/C(C)=C/CC/C(C)=C/CC1=C(C)C(=O)c2ccccc2C1=O [vitamin K2-7] as the compound, how does the CEA levels [3] read?
Answer: The CEA levels was “dropped markedly”.

Question: What about the side effects ([4]; Example 06: person, 100 then 350 μg/day) of the same compound?
Answer: Its side effects is “no side effects”.

Question: What about the adverse effects ([4]; Example 08: person, 650 μg/day, 2 months) of the same compound?
Answer: The adverse effects was “no adverse effects”.

Question: What about the “symptoms of the nerves and muscle (cramps, tingling and numbness of lower limbs)” value ([5]; 100 μg/day) of the same compound?
Answer: The value was “significantly relieved”.

Question: And the “cramps and neuropathic symptoms” value ([5]; 350 μg/day over two months)?
Answer: Its value is “markedly reduced”.

Question: What about the blood pressure ([6]; Example 07: 2x350 μg/day restarted after 15 days off treatment (146/108 off treatment)) of the same compound?
Answer: Its blood pressure is 136/100.

Question: What about the blood pressure ([6]; Example 07: continued 2x350 μg/day for next couple of months) of the same compound?
Answer: The blood pressure was 138/104.

Question: And the blood pressure ([6]; Example 07: person, 3x100 μg/day 1 month then 2x350 μg/day 2 months, baseline 160/114)?
Answer: Its blood pressure is 140/108.

Question: And the blood pressure ([6]; Example 08: person, 650 μg one capsule/day, 2 months, baseline 130/90)?
Answer: Its blood pressure is 112/80.

Question: And the general fatigue ([7]; Example 04: person, 350 μg/day)?
Answer: Its general fatigue is “general fatigue had reduced”.

Question: And the treadmill starting speed ([7]; Example 04: person, 350 μg/day, within 2 weeks, earlier start 5 km/hr)?
Answer: The treadmill starting speed was 6 km/hr.

Question: What about the treadmill speed reached ([7]; Example 04: person, 350 μg/day, within 2 weeks, earlier up to 6 km/hr) of the same compound?
Answer: Its treadmill speed reached is 6.4 km/hr.

Question: What about the “fatigue and energy level” value ([7]; Example 05: person, ovarian cancer under chemotherapy, 100 μg/day) of the same compound?
Answer: Its value is “not much relief in fatigue and energy level”.

Question: What about the “fatigue and energy level” value ([7]; Example 05: person, ovarian cancer under chemotherapy, larger dose, within six weeks) of the same compound?
Answer: Its value is “less fatigue and significant improvement in the energy level”.

Question: And the “fatigue and low energy levels” value ([7]; Example 06: person, 100 μg/day)?
Answer: Its value is “only mildly relieved”.

Question: And the “fatigue and energy level” value ([7]; Example 06: person, 350 μg/day over two months)?
Answer: Its value is “significant relief in fatigue and reasonable increases in the energy level”.

Question: And the “fatigue and energy at work” value ([7]; Example 07: person, hypertensive, 2x350 μg/day)?
Answer: Its value is “improvement in fatigue and feels more energetic at work”.

Question: And the “energy / ability to climb stairs” value ([7]; Example 09: person, diabetes and hypertension, 350 μg one cap/day, after a month)?
Answer: Its value is “started feeling more energetic and would walk up the stairs easily without any problem”.

Question: And the post-chemo restlessness/akathisia [2]?
Answer: The post-chemo restlessness/akathisia was “did not benefit”.

Question: Which “effect of supplementation on VO2max / aerobic capacity / exercise performance” value [1] does the source give for phosphate [Oral phosphate] here?
Answer: Its value is “no improvement in aerobic capacity”.

Question: Which “effect of supplementation on VO2max / aerobic capacity / exercise performance” value [1] does the source give for vitamin E here?
Answer: Its value is “neither vitamin E nor C, either alone or in combination, enhanced exercise performance”.

Question: With vitamin K as the compound, how does the “progression of insulin resistance” value [8] read?
Answer: The value was “reduction in progression of insulin resistance”.
